In patent US20060078598A1, “Animal feed containing an encapsulated ingredient” (CAN Technologies, Inc., priority 2002, published 2006):
Like-named read-outs stand apart in the source and are kept apart here.

Assays:
[1] = feed formula with circa 1.0 wt. % sample, contacted with deionized water
Excerpt: Equal levels of each sample (circa 1.0 wt. % based on total feed weight) were introduced into a feed formula that was placed in a vessel and contacted with deionized water.

[2] = deionized water
Excerpt: Equal levels of each sample (circa 1.0 wt. % of methionine based on total feed weight) were introduced into a feed formula that was placed in a vessel and exposed to deionized water for an hour.

CSCC[C@H](N)C(=O)O [Uncoated methionine, methionine]
LEACHING LOSS AFTER 30 MINUTES [1]: 40% | percent loss of methionine ([2]; after about 1 minute): about 15 wt. % | percent loss of methionine ([2]; after about 5 minutes): about 22 wt. % | percent loss of methionine ([2]; after about 15 minutes): about 30 wt. % | percent loss of methionine ([2]; after about 60 minutes): about 43 wt. %
